Measured values taken from DBAASP.
Values after ≈ are worked out from the molar mass of the structure shown.

Columns and labels:
Experiment in all cases: ≥ marks a high value that may be exact or a test limit, other limits are often not marked, values filed in µg/mL are converted to µM
[1] = test system: Escherichia coli ATCC 25922
[2] = test system: Klebsiella pneumoniae
[3] = test system: Serratia marcescens
[4] = test system: Staphylococcus aureus ATCC 2592
[5] = test system: Bacillus subtilis ATCC 6633
[6] = test system: Klebsiella pneumoniae ATCC 10031
[7] = test system: Micrococcus luteus ATCC 10240
[8] = test system: Pseudomonas aeruginosa ATCC 27853
[9] = test system: Salmonella enterica subsp. enterica serovar Typhimurium ATCC 14028
[10] = test system: Shigella dysenteriae ATCC 9752
[11] = test system: Staphylococcus aureus ATCC 6538P
[12] = test system: Staphylococcus aureus TK784
[13] = test system: Staphylococcus epidermidis ATCC 12228
[14] = test system: Bacillus subtilis
[15] = test system: Escherichia coli
[16] = test system: Micrococcus luteus
[17] = test system: Proteus mirabilis
[18] = test system: Pseudomonas aeruginosa
[19] = test system: Salmonella typhimurium
[20] = test system: Shigella dysenteriae
[21] = test system: Staphylococcus aureus
[22] = test system: Staphylococcus epidermidis
[23] = test system: Escherichia coli DH5alpha
[24] = test system: Micrococcus luteus ATCC 4698
[25] = test system: Staphylococcus aureus ATCC 6538
[26] = test system: Acinetobacter baumannii
[27] = test system: Enterococcus faecalis
[28] = test system: Bacillus subtilis 168
[29] = test system: Candida albicans F7-39/IDE99
[30] = test system: Escherichia coli B

Structure (SMILES)	MIC [1] [µM]	MIC [2] [µM]	MIC [5] [µM]	MIC [6] [µM]	MIC [7] [µM]	MIC [8] [µM]	MIC [9] [µM]	MIC [10] [µM]	MIC [11] [µM]	MIC [12] [µM]	MIC [13] [µM]	MIC [14] [µM]	MIC [15] [µM]	MIC [16] [µM]	MIC [17] [µM]	MIC [18] [µM]	MIC [19] [µM]	MIC [20] [µM]	MIC [21] [µM]	MIC [22] [µM]	other results
CC[C@H](C)[C@@H]1NC(=O)[C@H](CCCCN)NC(=O)[C@@H](NC(=O)[C@H](CCSC)NC(=O)[C@H](CC(C)C)NC(=O)[C@@H]2CCCN2C(=O)[C@H](Cc2ccccc2)NC(=O)[C@H](CC(C)C)NC(=O)[C@H](CC(C)C)NC(=O)[C@@H](N)Cc2ccccc2)CSSC[C@@H](C(=O)O)NC(=O)[C@H](CCCCN)NC(=O)CNC(=O)[C@H](CCC(N)=O)NC1=O [FLLFPLMCKIQGKC]	> 60.9	> 60.9																			MIC [3]: ≥ 60.9 µM; MIC [4]: 22.9 µM (≈ 37.5 µg/mL)
CC(C)C[C@H](NC(=O)[C@H](C)NC(=O)CN)C(=O)N[C@@H](Cc1ccccc1)C(=O)N[C@@H](CCCCN)C(=O)N[C@H](C(=O)N[C@@H](C)C(=O)N[C@@H](CO)C(=O)N[C@@H](CCCCN)C(=O)N[C@H](C(=O)N[C@@H](CC(C)C)C(=O)N1CCC[C@H]1C(=O)N[C@@H](CO)C(=O)O)C(C)C)C(C)C [GALFKVASKVLPS]		> 152										≥ 152	> 152	≥ 152	≥ 152	> 152	≥ 152	≥ 152	> 152	≥ 152	
CC(C)C[C@H](NC(=O)[C@H](C)NC(=O)CNC(=O)[C@H](CC(C)C)NC(=O)[C@@H](N)Cc1ccccc1)C(=O)N[C@@H](Cc1ccccc1)C(=O)N[C@@H](CCCCN)C(=O)N[C@@H](C)C(=O)N[C@@H](CC(C)C)C(=O)N[C@@H](CO)C(=O)N[C@@H](CCCCN)C(=O)N[C@@H](CC(C)C)C(=O)N[C@H](C(=O)O)C(C)C [FLGALFKALSKLV]											12.8 (≈ 18 µg/mL)										MIC [23]: ≥ 35.5 µM; MIC [24]: 4.27 µM (≈ 6 µg/mL); MIC [25]: 7.82 µM (≈ 11 µg/mL)
CC(C)C[C@H](NC(=O)[C@H](C)NC(=O)CNC(=O)[C@H](CC(C)C)NC(=O)[C@@H](N)Cc1ccccc1)C(=O)N[C@@H](Cc1ccccc1)C(=O)N[C@@H](CCCCN)C(=O)N[C@H](C(=O)N[C@@H](Cc1c[nH]c2ccccc12)C(=O)N[C@@H](CO)C(=O)N[C@@H](CCCCN)C(=O)O)C(C)C [FLGALFKVWSK]		> 154										≥ 154	> 154	≥ 154	≥ 154	> 154	≥ 154	≥ 154	> 154	≥ 154	
CC(C)C[C@H](NC(=O)[C@H](C)NC(=O)CNC(=O)[C@H](CC(C)C)NC(=O)[C@@H](N)Cc1ccccc1)C(=O)N[C@@H](Cc1ccccc1)C(=O)N[C@@H](CCCCN)C(=O)N[C@H](C(=O)N[C@@H](C)C(=O)N[C@@H](Cc1c[nH]c2ccccc12)C(=O)N[C@@H](CCCCN)C(=O)O)C(C)C [FLGALFKVAWK]		39.1 (≈ 50 µg/mL)										19.5 (≈ 25 µg/mL)	78.2 (≈ 100 µg/mL)	19.5 (≈ 25 µg/mL)	≥ 156	> 156	≥ 156	≥ 78.2	9.77 (≈ 12.5 µg/mL)	≥ 39.1	
CC(C)C[C@H](NC(=O)[C@H](C)NC(=O)CNC(=O)[C@H](CC(C)C)NC(=O)[C@@H](N)Cc1ccccc1)C(=O)N[C@@H](Cc1ccccc1)C(=O)N[C@@H](CCCCN)C(=O)N[C@H](C(=O)N[C@@H](C)C(=O)N[C@@H](CO)C(=O)N[C@@H](CCCCN)C(=O)N[C@H](C(=O)O)C(C)C)C(C)C [FLGALFKVASKV]		> 156										≥ 156	> 156	≥ 156	≥ 156	> 156	≥ 156	≥ 156	> 156	≥ 156	
CC(C)C[C@H](NC(=O)[C@H](CC(C)C)NC(=O)[C@H](CCCCN)NC(=O)[C@H](CO)NC(=O)[C@H](CC(C)C)NC(=O)[C@H](C)NC(=O)[C@H](CCCCN)NC(=O)[C@H](Cc1ccccc1)NC(=O)[C@H](CC(C)C)NC(=O)[C@H](C)NC(=O)CNC(=O)[C@@H](NC(=O)[C@@H](N)Cc1ccccc1)C(C)C)C(=O)O [FVGALFKALSKLL]											15.6 (≈ 22 µg/mL)										MIC [23]: ≥ 35.5 µM; MIC [24]: 4.27 µM (≈ 6 µg/mL); MIC [25]: 8.53 µM (≈ 12 µg/mL)

Continued, in another order:

MIC [1] [µM]	MIC [2] [µM]	MIC [5] [µM]	MIC [6] [µM]	MIC [7] [µM]	MIC [8] [µM]	MIC [9] [µM]	MIC [10] [µM]	MIC [11] [µM]	MIC [12] [µM]	MIC [13] [µM]	MIC [14] [µM]	MIC [15] [µM]	MIC [16] [µM]	MIC [17] [µM]	MIC [18] [µM]	MIC [19] [µM]	MIC [20] [µM]	MIC [21] [µM]	MIC [22] [µM]	Structure (SMILES)	other results
> 105		≥ 105	≥ 105	≥ 105	> 105	> 105	≥ 105	≥ 105	≥ 105	> 105										CC(C)C[C@H](NC(=O)[C@@H](N)Cc1c[nH]c2ccccc12)C(=O)N[C@@H](CCCCN)C(=O)N[C@@H](CCCCN)C(=O)N[C@@H](Cc1c[nH]c2ccccc12)C(N)=O [WLKKW]	
> 107		≥ 107	≥ 107	≥ 107	> 107	> 107	≥ 107	≥ 107	≥ 107	> 107										CC(C)C[C@H](NC(=O)[C@H](CC(C)C)NC(=O)[C@@H](N)Cc1c[nH]c2ccccc12)C(=O)N[C@@H](CCCCN)C(=O)N[C@@H](Cc1c[nH]c2ccccc12)C(N)=O [WLLKW]	
															0.753 (≈ 1.3 µg/mL)			2.49 (≈ 4.3 µg/mL)		CC(C)C[C@H](NC(=O)[C@H](Cc1c[nH]c2ccccc12)NC(=O)[C@H](CCCCN)NC(=O)[C@H](CC(C)C)NC(=O)[C@H](CC(C)C)NC(=O)[C@H](CCCCN)NC(=O)[C@H](CCCN=C(N)N)NC(=O)[C@H](Cc1c[nH]c2ccccc12)NC(=O)[C@H](CCCCN)NC(=O)[C@@H](N)CCCCN)C(=O)N[C@@H](C)C(=O)N[C@@H](CCCCN)C(=O)N[C@@H](CCCCN)C(N)=O [KKWRKLLKWLAKK]	MIC [26]: 1.33 µM (≈ 2.3 µg/mL); MIC [27]: 1.56 µM (≈ 2.7 µg/mL)
1.42 (≈ 2 µg/mL)		1.42 (≈ 2 µg/mL)	1.42 (≈ 2 µg/mL)	1.42 (≈ 2 µg/mL)	5.67 (≈ 7.99 µg/mL)	1.42 (≈ 2 µg/mL)	1.42 (≈ 2 µg/mL)	1.42 (≈ 2 µg/mL)	5.67 (≈ 7.99 µg/mL)	1.42 (≈ 2 µg/mL)										CC(C)C[C@H](NC(=O)[C@H](CC(C)C)NC(=O)[C@H](CCCCN)NC(=O)[C@H](CCCCN)NC(=O)[C@H](CC(C)C)NC(=O)[C@H](Cc1c[nH]c2ccccc12)NC(=O)[C@H](CCCCN)NC(=O)[C@H](CC(C)C)NC(=O)[C@H](CC(C)C)NC(=O)[C@@H](N)CCCCN)C(=O)N[C@@H](CCCCN)C(N)=O [KLLKWLKKLLK]	
															10 (≈ 14.1 µg/mL)			10 (≈ 14.1 µg/mL)		CC(C)C[C@H](NC(=O)[C@@H](NC(=O)[C@H](CCCCN)NC(=O)[C@H](CCCCN)NC(=O)[C@H](CC(C)C)NC(=O)[C@H](CC(C)C)NC(=O)[C@H](CCCCN)NC(=O)[C@H](CC(C)C)NC(=O)[C@H](C)NC(=O)[C@H](CCCCN)NC(=O)CNC(=O)[C@H](Cc1ccccc1)NC(=O)CN)C(C)C)C(N)=O [GFGKALKLLKKVL]	MIC [28]: 1.8 µM (≈ 2.54 µg/mL); MIC [29]: 5 µM (≈ 7.07 µg/mL); MIC [30]: 2.5 µM (≈ 3.53 µg/mL)
40.6 (≈ 40 µg/mL)		20.3 (≈ 20 µg/mL)	≥ 81.1	≥ 81.1	81.1 (≈ 79.9 µg/mL)	> 81.1	≥ 81.1	20.3 (≈ 20 µg/mL)	≥ 81.1	81.1 (≈ 79.9 µg/mL)										CC(C)C[C@H](NC(=O)[C@H](Cc1c[nH]c2ccccc12)NC(=O)[C@H](CCCCN)NC(=O)[C@H](CC(C)C)NC(=O)[C@H](CC(C)C)NC(=O)[C@H](Cc1c[nH]c2ccccc12)NC(=O)[C@@H](N)CCCCN)C(N)=O [KWLLKWL]	
